Test results as given in patent publication US5422344A, “Method of treating retroviral infections in mammals” (The United States of America as represented by the …, priority 1990, dated 1995).

Columns and labels:
[1] = tested on: Friend virus/spleen focus forming virus (SFFV); assay: Inhibition of Friend virus disease in mice (spleen weight, IP); assay type: in vivo, male NFS mice; details: for Number Friend disease positive (spleen weight >0.2 g) / Spleen weight AVG.: 4 weeks
Description: INHIBITION OF FRIEND VIRUS DISEASE IN MICE BY CAMPTOTHECIN. […] The Friend virus/spleen focus forming virus (SFFV) mouse model was used to test CPT in vivo. SFFV is a defective type C retrovirus which induces the rapid onset of erythroleukemia, characterized by severe splenomegaly, and death of the affected animal within 3-6 weeks after innoculation. A well characterized stock of SFFV, in complex with an amphotropic murine C-type virus which induced only a low incidence of lymphoid and myloid disease after a long latency, was injected into adult mice at viral dilutions which would be expected to induce Friend erythroleukemia in essentially 100% of infected mice.
Male NFS mice were injected IP with 0.5 ml of virus stock to which CPT, disolved in DMSO, was added. The average weight of a mouse was 24 g, and CPT was added from a stock at 10 mg/ml. DMSO was added to A, E and I viral inoculum at 2.8%, the maximum level. Animals were sacrificed 4 weeks after inoculation, and spleens were weighed to determine the incidence of Friend virus induced splenomegaly.

Moloney MuLV = Moloney MuLV replication in vitro; assay type: cell-based, Moloney murine leukemia virus
mammalian cells = details: cytotoxic doses, Wall et al., cited from earlier work
HIV p24 antigen = assay: Western blot analysis of HIV p24 antigen after HIV infection and CPT treatment; assay type: cell-based, HIV-1; details: 7 days post-infection
Experimental: A. H9 cells were infected as described in Table 1 and the text. Virus was pelleted from culture supernatants 7 days after infection. The viral pellets were resuspended, lysed, and the proteins separated and transferred as described in the Examples. The blot was analyzed using an HIV p24 specific monoclonal antibody (S. Showalter and M. Zweig, unpublished), and visualized using the Bio-Rad immunogold kit. Lane 1: virus from untreated infected cells; lane 2: virus from cells treated with 0.005 μM CPT for the first 18 h after infection.
B. Extracts of HIV-infected cells (7 days post-infection) were prepared and analyzed as described in the Examples using an HIV p24 specific monoclonal antibody (S. Showalter and M. Zweig, unpublished). Blots were visualized using the Bio-Rad immunogold kit. Lane 1: untreated infected cells; lane 2: 0.2 μM CPT; lane 3: 0.1 μM CPT; lane 4: 0.05 μM CPT; lane 5: 0.02 μM CPT; lane 6: 0.01 μM CPT; lane 7: 0.005 μM CPT. […]
The culture media from cells subjected to different treatments was prepared by centrifugation (200xg, 10 min) to remove whole cells and debris, the viral particles were subsequently pelleted (35,000 rpm, 11/2h), and the viral pellet was resuspended in 100 μl of RIPA buffer (50 mM Tris-HC1, pH 7.5; 0.5M NaHPO4, 0.5% NP40, 0.25% Na-deoxycholate, 0.1% SDS). […] Protein concentration was determined using the Bio-Rad protein assay. […]

[2] = tested on: lentivirus-associated topoisomerase; assay: Inhibition of lentivirus-associated topoisomerase activity; assay type: biochemical, HIV and EIAV
viral associated topo I = assay: Inhibition of viral associated topo I activity; assay type: biochemical
[3] = tested on: Simian Virus 40 DNA replication; details: Snapka 1986; cited from earlier work
[4] = Cell number, viability (trypan blue dye exclusion) and growth of H9 cells; assay type: cell-based; details: human, h9 cells
H9 cells = assay: as above; assay type: cell-based; details: for Cell No.: 7 days postinfection
[5] = tested on: equine infectious anemia virus (EIAV); assay: EIAV replication / infection in cells; assay type: cell-based
HIV = assay: Virus production in chronically HIV-infected cells; assay type: cell-based; details: non-cytotoxic doses; preliminary evidence
[6] = tested on: experimental tumors and human colon cancer; details: cited from earlier work
eukaryotic topo I = details: Gupta et al. 1988; cited from earlier work
[7] = group B, virus dil. 1/500, CPT 5 mg/kg IP
[8] = group C, virus dil. 1/500, CPT 10 mg/kg IP
[9] = group D, virus dil. 1/500, CPT 20 mg/kg IP
[10] = group F, virus dil. 1/2000, CPT 5 mg/kg IP
[11] = group G, virus dil. 1/2000, CPT 10 mg/kg IP
[12] = group H, virus dil. 1/2000, CPT 20 mg/kg IP
[13] = group J, no virus, CPT 5 mg/kg IP
[14] = group K, no virus, CPT 10 mg/kg IP
[15] = group L, no virus, CPT 20 mg/kg IP

In the case of `CC[C@@]1(O)C(=O)OCc2c1cc1n(c2=O)Cc2cc3ccccc3nc2-1` [CPT, Camptothecin], the “Number Friend disease positive (spleen weight >0.2 g)” value (from here on “Number Friend disease positive”) [1, 7] is reported as 4/5, the “Spleen weight AVG.” value [1, 7] is reported as 0.78 g and the “Number Friend disease positive” value [1, 8] is reported as 3/5. For the same compound, the “Spleen weight AVG.” value [1, 8] was 0.84 g, the “Number Friend disease positive” value [1, 9] was 4/5 and the “Spleen weight AVG.” value [1, 9] was 0.28 g. For the same compound, the “Number Friend disease positive” value [1, 10] was 1/5, the “Spleen weight AVG.” value [1, 10] was 0.22 g and the “Number Friend disease positive” value [1, 11] was 0/5. For the same compound, the “Spleen weight AVG.” value [1, 11] was 0.18 g, the “Number Friend disease positive” value [1, 12] was 1/5 and the “Spleen weight AVG.” value [1, 12] was 0.22 g. The “Number Friend disease positive” value [1, 13] was 0/5, the “Spleen weight AVG.” value [1, 13] was 0.12 g and the “Number Friend disease positive” value [1, 14] was 0/5. For the same compound, the “Spleen weight AVG.” value [1, 14] was 0.10 g, the “Number Friend disease positive” value [1, 15] was 0/5 and the “Spleen weight AVG.” value [1, 15] was 0.12 g. The “induction of erythroleukemia by SFFV” value ([1]; in vivo) was “blocks the induction of erythroleukemia by SFFV in vivo”, the “effect on number of mice with enlarged spleens and average spleen weight” value ([1]; vs control, virus infected mice) was “reduced the number of mice showing enlarged spleens and the average spleen weight” and the “inhibiting the initiation of infection by Moloney MuLV” value (Moloney MuLV; cell culture) was “has been demonstrated”. For the same compound, the “Moloney MuLV replication” value (Moloney MuLV; in vitro) was “inhibits Moloney MuLV replication in vitro”, the “fragmentation of DNA” value (mammalian cells; mammalian cells) was “causes rapid and reversible fragmentation of DNA in mammalian cells” and the “RNA and DNA synthesis” value (mammalian cells) was “inhibits RNA and DNA synthesis”. For the same compound, the “p24 in culture media” value (HIV p24 antigen; 0.005 μM CPT for first 18 h (FIG. 1A)) was “could not be detected in the culture media”, the “p24 in cell extracts” value (HIV p24 antigen; 0.005-0.2 μM CPT, 1 h (FIG. 1B)) was “could not be detected in extracts” and the lentivirus-associated topoisomerase activity [2] was “inhibited this activity”. For the same compound, the “viral associated topo I activity” value (viral associated topo I) was “inhibited”, the “Simian Virus 40 DNA replication” value [3] was “selectively interferes with Simian Virus 40 DNA replication” and the viability at 168 h, 0.005 µM ([4]; 0.005 μM CPT, 7 days postinfection) was 100%. It also gave a viability at 168 h, 0.01 µM ([4]; 0.01 μM CPT, 7 days postinfection) of 100%, a viability at 168 h, 0.02 µM ([4]; 0.02 μM CPT, 7 days postinfection) of 100% and a viability at 168 h, 0.05 µM ([4]; 0.05 μM CPT, 7 days postinfection) of 100%. It also gave a viability at 168 h, 0.1 µM ([4]; 0.1 μM CPT, 7 days postinfection) of 100%, a viability at 168 h, 0.2 µM ([4]; 0.2 μM CPT, 7 days postinfection) of 100% and a selectivity ratio ([4]; data not shown, read-out: anti-HIV doses vs cytotoxic doses (times lower)) of 400. The “Cell No.” value (H9 cells; 0.005 μM CPT) was 2 × 10^6, the “Cell No.” value (H9 cells; 0.01 μM CPT) was 2.2 × 10^6 and the “Cell No.” value (H9 cells; 0.02 μM CPT) was 4 × 10^5. For the same compound, the “Cell No.” value (H9 cells; 0.05 μM CPT) was 1 × 10^5, the “Cell No.” value (H9 cells; 0.1 μM CPT) was 1 × 10^5 and the “Cell No.” value (H9 cells; 0.2 μM CPT) was 1 × 10^5. For the same compound, the “effect on cell viability or cell growth” value (H9 cells; 0.005-0.02 μM CPT) was “no effect on cell viability or cell growth was detected”, the “effect on cell growth” value (H9 cells; 0.05-0.2 μM CPT) was “cell growth was arrested” and the “effect on cell viability” value (H9 cells; 0.05-0.2 μM CPT, trypan blue dye exclusion) was “no effect on cell viability was detected”. The “inhibiting the initiation of infection by EIAV” value ([5]; cell culture) was “has been demonstrated”, the EIAV replication ([5]; chronically-infected cells) was “inhibits equine infectious anemia virus (EIAV) replication in chronically-infected cells” and the “virus production in chronically HIV-infected cells” value (HIV) was “virus production is suppressed”. The antitumor activity [6] was “strong antitumor activity” and the “inhibition of eukaryotic topo I” value (eukaryotic topo I) was “known specific inhibitor of eukaryotic topo I”.
